How the values were obtained:
A549 cells [1] = assay: Western blot of phenotype-related proteins (E-CAD, ZEB1) in EMT-induced lung cancer cells; type: cell-based
Method: The activity of TGF-β in a tumor microenvironment performs various functions, such as promoting cancer growth and EMT. Cancer cells were treated with TGF-β, an external stimulus, to induce EMT, and the results were illustrated in FIG. 1. To this end, A549 cells (KCBL No. 10185) as a lung cancer cell line were purchased from the Korean Cell Line Bank (KCLB). EMT was induced by treating the A549 cells with TGF-β (5 ng/mL, Peprotech, Cranbury, NJ, USA) for 48 hours. Changes in protein expression of cancer cells were confirmed through western blot analysis in the following process. First, cells were lysed in a lysis buffer [including 20 mM HEPES, pH 7.2, 150 mM NaCl, 0.5% Triton X-100, 10% glycerol, protease/phosphatase inhibitor mixture (protease/phosphatase inhibitor cocktail (Thermofisher, Waltham, MA))]. The lysate was centrifuged at 13,000 rpm at 4° C. for 20 minutes, and the supernatant was obtained and separated by SDS-PAGE, and then subjected to western blot analysis. To observe the amounts of proteins, E-cadherin (sc-21791), p53 (sc-126), SMAD4 (sc-7966), ZEB1 (sc-515797), mouse IgG (sc-2025) and rabbit IgG (#sc-2027) antibodies (purchased from Santa Cruz Biotechnology (Santa Cruz, CA, USA)) were used. In addition, ERK1/2 (#9102), phospho-ERK1/2 (#9106), phospho-MEK1/2 (#9121) and MYC (#13987) antibodies (Cell Signaling Technology (Beverly, MA, USA)) were used and the amounts of the proteins were observed. In addition, the rabbit polyclonal anti-GAPDH antibody was provided and used from the Korea Research Institute of Bioscience and Biotechnology.
TGF-β-treated cancer cells and -untreated cancer cells were treated with Nutlin-3a (5 μM, Sigma, St. Louis, Mo) to activate p53. It was confirmed whether the epithelial cell phenotype was restored according to p53 activation, and the results were shown in FIG. 2. At this time, after inducing EMT of A549 cells under the same conditions as in Example 1-1, Nutlin-3a (1 μM, Sigma, St. Louis, Mo) was treated, and Western blot and qRT-PCR were performed in the same method as in Example 1-1. […]

A549 cells [2] = assay: qRT-PCR of genes related to mesenchymal cells, epithelial cells and stemness; type: cell-based
Method: In addition, qRT-PCR was performed to perform transcript analysis for all genes (n=3, mean±SD). The qRT-PCR analysis was performed using a PCR system (Veriti 96well Thermal Cycler, Applied Biosystems, Waltham, MA, USA), and the qRT-PCR analysis was performed using the QuantStudio 5 real-time PCR system (Applied Biosystems, Foster City, CA), samples containing 20 μL of cDNA, primers, and SYBR Master Mix (Genet Bio, Daejeon, Korea).
TGF-β-treated cancer cells and -untreated cancer cells were treated with Nutlin-3a (5 μM, Sigma, St. Louis, Mo) to activate p53. It was confirmed whether the epithelial cell phenotype was restored according to p53 activation, and the results were shown in FIG. 2. At this time, after inducing EMT of A549 cells under the same conditions as in Example 1-1, Nutlin-3a (1 μM, Sigma, St. Louis, Mo) was treated, and Western blot and qRT-PCR were performed in the same method as in Example 1-1.
In addition, in order to measure cell viability, the A549 cells from which the SMAD4 gene was deleted as described above were seeded in a 96-well plate and after 24 hours, EMT was induced and Nutlin-3a (1 μM) was treated, and then an anticancer drug 5-FU (1 μM) or DOX (0.5 μM) was treated for 5 days. In FIG. 4A, after 5 days, the cells were imaged using IncuCyte ZOOM (Sartorius, Gottingen, Germany), and the cell viability was measured by confluence of adherent living cells using IncuCyte software. In addition, the results were confirmed by qRT-PCR in the same manner as in Example 1-1 and illustrated in FIG. 4B (n=3, mean±SD).
Alternatively, in the same manner as in Example 2, the A549 cells from which the SMAD4 gene was deleted were treated with shRNAs set forth in SEQ ID NO: 2 (shERK1) and SEQ ID NO: 3 (shERK2), thereby deleting the ERK gene. Then, the results were confirmed by western blot analysis or qRT-PCR (n=3, mean±SD).

[3] = A549 cells, TGF-β 5 ng/mL for 48 hours

COc1ccc(C2=N[C@@H](c3ccc(Cl)cc3)[C@@H](c3ccc(Cl)cc3)N2C(=O)N2CCNC(=O)C2)c(OC(C)C)c1 [Nutlin-3a]
epithelial cell phenotype (E-CAD+/ZEB1−), protein expression (A549 cells [1]; TGF-β-treated A549 cells (TGF-β maintained)): converged to inactivation of E-CAD and inactivation of ZEB1 | epithelial cell phenotype (E-CAD+/ZEB1−), protein expression (A549 cells [1]; TGF-β-untreated A549 cells): restored | activity of SNAI1 gene (mesenchymal) (A549 cells [2]; TGF-β-treated A549 cells): suppressed | activity of TWIST1 gene (mesenchymal) (A549 cells [2]; TGF-β-treated A549 cells): almost no change | activity of ZEB1 gene (mesenchymal) (A549 cells [2]; TGF-β-treated A549 cells): significantly inhibited | activity of genes CDH1 and EpCAM related to epithelial cells (A549 cells [2]; TGF-β-treated A549 cells): rather decreased or still showed the low activity

transforming growth factor beta [TGF-β]
expression of the E-cadherin protein (A549 cells [1]; [3]): reduced | expression of GRHL2 and OVOL1 genes related to epithelial cells (A549 cells [2]; [3]): did not show significant changes | expression of genes CDH1 and EpCAM related to epithelial cells (A549 cells [2]; [3]): reduced | expression of genes SMAD4, ZEB1, VIM, SNAI1, SNAI2 related to mesenchymal cells (A549 cells [2]; [3]): activated

From patent publication US20250235446A1, “COMPOSITION FOR INHIBITING METASTASIS AND ENHANCING ANTICANCER DRUG SENSITIVITY” (Korea Advanced Institute of Science and Technology, priority 2020, published 2025)
